Holding throughout (assay): cells
Common to all, as to set-up: JFCR39 human cancer cell line panel, antiproliferative dose response (optical density), GI50

One experiment concerns A549. The conditions noted are these: Homo sapiens, A549. As to the method:
(§1) Initially, we evaluated new DDP analogues for their antiproliferative activities across the panel of 39 human cancer cell lines, JFCR39[50],[51]. […] Purified DDPs was dissolved in DMSO (Specially Prepared Reagent, Nuclease and Protease tested, NACALAI, 09659-14) to prepare 5 mM solutions. The Each DDP solution (5 mM) was used for antiproliferative effects on cancer cell lines (Supplementary Notes 23, 24, 25, 26), biological activity against Drosophila (Supplementary Note 27), anti-HIV assay (Supplementary Note 28) and screening of amyloid Ab42 aggregation inhibitors (Supplementary Notes 29).

Another experiment has as its system ACHN. The conditions noted are these: Homo sapiens, ACHN. As to the method:
as §1

In a further experiment the test system is BSY-1. To be noted: BSY-1. As to the method:
as §1

The test system of the next experiment is DMS114. The conditions noted are these: Homo sapiens, DMS-114. As to the method:
as §1

A further experiment has as its system HBC-4. To be noted: HBC4. As to the method: as §1
The subject of a further experiment is HBC-5. The conditions noted are these: HBC5. As to the method: as §1
For the next experiment, the system named is HCT-116. The conditions noted are these: Homo sapiens, HCT-116. The method, then:
as §1

A further experiment has as its system HT-29. The conditions noted are these: Homo sapiens, HT-29. As to the method: as §1
The subject of the next experiment is KM-12. To be noted: Homo sapiens, KM12. The method, then:
as §1

A further experiment concerns LOX-IMVI. To be noted: Homo sapiens, LOX IMVI. As to the method: as §1
For the next experiment, the system named is MDA-MB-231. The conditions noted are these: Homo sapiens, MDA-MB-231. As to the method: as §1
The subject of another experiment is MKN-A. The method, then:
as §1

For the next experiment, the system named is MKN1. The conditions noted are these: Homo sapiens, MKN-1. The method, then: as §1
A further experiment has as its system MKN45. To be noted: Homo sapiens, MKN-45. The method, then: as §1
The next experiment concerns MKN74. The conditions noted are these: Homo sapiens, MKN-74. As to the method:
as §1

The next experiment has as its system NCI-H226. The conditions noted are these: Homo sapiens, NCI-H226. As to the method:
as §1

A further experiment has as its system NCI-H23. To be noted: Homo sapiens, NCI-H23. As to the method:
as §1

A further experiment relates to OVCAR-3. To be noted: Homo sapiens, OVCAR-3. As to the method:
as §1

For a further experiment, the system named is OVCAR-5. To be noted: Homo sapiens, OVCAR-5. As to the method:
as §1

The next experiment relates to SK-OV-3. To be noted: Homo sapiens, SK-OV-3. As to the method:
as §1

A further experiment deals with SNB-75. To be noted: Homo sapiens, SNB-75. As to the method: as §1
Another experiment relates to SNB-78. The conditions noted are these: Homo sapiens, SNB-78. The method, then: as §1
A further experiment relates to U251. To be noted: Homo sapiens, U-251. The method, then: as §1

As usually defined, the GI50 is the concentration that inhibits growth by half.

As to `C=C1CC[C@H]2[C@]3(C)C[C@H](C=C(C)C)O[C@H]3CC[C@]2(C)[C@@H]1Cc1c(OC)oc(C)c(C)c1=O` [Compound 24], the GI50 came to 6.88 µM in the experiment on A549; 11.6 µM in the experiment on ACHN; 9.59 µM in the experiment with BSY-1; 0.189 µM in the experiment with DMS114; 13.4 µM in the experiment on HBC-4; 10.7 µM with HBC-5. Besides, the GI50 in the experiment on HCT-116 was 1.3 µM; with HT-29, 10.1 µM; in the experiment on KM-12, 9.49 µM; with LOX-IMVI, 0.929 µM; in the experiment with MDA-MB-231 it was 11.6 µM; in the experiment with MKN-A, 0.573 µM. Further, the GI50 was 12.2 µM with MKN1; 9.14 µM in the experiment on MKN45; 3.72 µM with MKN74; 10.6 µM in the experiment on NCI-H226; 0.668 µM in the experiment with NCI-H23; 2.68 µM in the experiment on OVCAR-3. The GI50 in the experiment with OVCAR-5 was 14.5 µM; in the experiment on SK-OV-3, 10.7 µM; in the experiment with SNB-75, 13.9 µM; with SNB-78, 12.9 µM; in the experiment with U251, 13.5 µM.

Consider `C=C1CCC2C3(C)CC(C=C(C)C)OC3CCC2(C)C1Cc1c(OC)oc(C)c(C)c1=O` (stereo not shown) [Compound 23], for which the GI50 came out at 10.4 µM with A549; 11.8 µM in the experiment on ACHN; 10.3 µM in the experiment with BSY-1; 0.0552 µM in the experiment on DMS114; 13.2 µM in the experiment with HBC-4; 10.7 µM in the experiment on HBC-5. Moreover, the 50% growth inhibitory concentration (GI50) worked out at 0.995 µM in the experiment with HCT-116; 10.3 µM with HT-29; 10.3 µM with KM-12; 0.604 µM in the experiment with LOX-IMVI; 11.9 µM in the experiment with MDA-MB-231; 0.318 µM with MKN-A. In addition, the 50% growth inhibitory concentration (GI50) worked out at 13.2 µM with MKN1; 11.1 µM with MKN45; 4.22 µM with MKN74; 10.7 µM in the experiment on NCI-H226; 0.228 µM in the experiment on NCI-H23; 1.47 µM with OVCAR-3. In addition, the GI50 in the experiment with OVCAR-5 is 15.4 µM; with SK-OV-3, 10.8 µM; with SNB-75, 13.3 µM; with SNB-78 it was 12.3 µM; in the experiment with U251, 13.2 µM.

The values above are taken from paper PMC7156458, “Synthetic biology based construction of biological activity-related library of fungal decalin-containing diterpenoid pyrones” (Nature Communications, 2020).
